Assay results reported in PMC8079033, “Design, synthesis, anticancer evaluation, and molecular modelling studies of novel tolmetin derivatives as potential VEGFR-2 inhibitors and apoptosis inducers” (Journal of Enzyme Inhibition and Medicinal Chemistry, 2021).

What was measured:
colon (HCT-15) cell line = assay: MTT cytotoxicity assay; assay type: cell-based; details: Homo sapiens, mean ± SD of three experiments
[1] = system: leukaemia HL-60 (TB) cell line; assay: MTT cytotoxicity assay; assay type: cell-based; details: Homo sapiens, mean ± SD of three experiments
[2] = system: panel of 60 tumour cell lines; assay: NCI 60-cell line one-dose screen, summary over the panel; assay type: cell-based, human; details: Homo sapiens, 60 cell, listed leukaemia, lung, colon, CNS, melanoma, ovarian, renal, breast lines, read-out: GI% range, potent growth inhibitory effects on the cell lines listed in the text
Description: Anticancer activity screening of the newly synthesised compounds was measured in vitro utilising 60 different human tumour cell lines provided by US National Cancer Institute according to previously reported standard procedure[41–43] as follows: Cells are inoculated into 96-well microtiter plates in 100 ml. After cell inoculation, the microtiter plates are incubated at 37 °C, 5% CO2, 95% air, and 100% relative humidity for 24 h prior to addition of experimental compounds. After 24 h, two plates of each cell line are fixed in situ with TCA, to represent a measurement of the cell population for each cell line at the time of compound addition (Tz). Experimental compounds are solubilised in dimethyl sulfoxide at 400-fold the desired final maximum test concentration and stored frozen prior to use. At the time of compound addition, an aliquot of frozen concentrate is thawed and diluted to twice the desired final maximum test concentration with a complete medium containing […] gentamicin. Aliquots of […] of the compounds dilutions are added to the appropriate microtiter wells already containing 100 ml of medium, resulting in the required final compound concentration. Following compound addition, the plates are incubated for an additional 48 h at 37 °C, 5% CO2, 95% air, and 100% relative humidity. […] The bound stain is subsequently solubilised with a 10 mM trizma base, and the absorbance is read on an automated plate reader at a wavelength of 515 nm. […] Using the absorbance measurements [time zero, (Tz), control growth, (C), and test growth in the presence of compound (Ti)], the percentage growth is calculated for each compound. […]
Fifteen newly synthesised compounds were tested for their in vitro antiproliferative activity by the National Cancer Institute (NCI), Maryland, USA[50], under the Developmental Therapeutic Program (DTP)[41]^,[43]^,[51]^,[52]. The tested compounds were evaluated at a concentration of 10 µM on a panel of 60 tumour cell lines representing leukaemia and non-small cell lung, colon, CNS, melanoma, ovarian, renal, prostate, and breast cancers. […]

VEGFR-2 (KDR) = biological target: T1, VEGFR-2 (KDR) (Homo sapiens, UniProt P35968); assay: VEGFR-2 (KDR) Kinase Assay Kit (Kinase-Glo Max luminescence); assay type: biochemical; details: mean ± SD of three experiments
T1 construct: purchased 40325
T1 sequence (P35968 20-1356): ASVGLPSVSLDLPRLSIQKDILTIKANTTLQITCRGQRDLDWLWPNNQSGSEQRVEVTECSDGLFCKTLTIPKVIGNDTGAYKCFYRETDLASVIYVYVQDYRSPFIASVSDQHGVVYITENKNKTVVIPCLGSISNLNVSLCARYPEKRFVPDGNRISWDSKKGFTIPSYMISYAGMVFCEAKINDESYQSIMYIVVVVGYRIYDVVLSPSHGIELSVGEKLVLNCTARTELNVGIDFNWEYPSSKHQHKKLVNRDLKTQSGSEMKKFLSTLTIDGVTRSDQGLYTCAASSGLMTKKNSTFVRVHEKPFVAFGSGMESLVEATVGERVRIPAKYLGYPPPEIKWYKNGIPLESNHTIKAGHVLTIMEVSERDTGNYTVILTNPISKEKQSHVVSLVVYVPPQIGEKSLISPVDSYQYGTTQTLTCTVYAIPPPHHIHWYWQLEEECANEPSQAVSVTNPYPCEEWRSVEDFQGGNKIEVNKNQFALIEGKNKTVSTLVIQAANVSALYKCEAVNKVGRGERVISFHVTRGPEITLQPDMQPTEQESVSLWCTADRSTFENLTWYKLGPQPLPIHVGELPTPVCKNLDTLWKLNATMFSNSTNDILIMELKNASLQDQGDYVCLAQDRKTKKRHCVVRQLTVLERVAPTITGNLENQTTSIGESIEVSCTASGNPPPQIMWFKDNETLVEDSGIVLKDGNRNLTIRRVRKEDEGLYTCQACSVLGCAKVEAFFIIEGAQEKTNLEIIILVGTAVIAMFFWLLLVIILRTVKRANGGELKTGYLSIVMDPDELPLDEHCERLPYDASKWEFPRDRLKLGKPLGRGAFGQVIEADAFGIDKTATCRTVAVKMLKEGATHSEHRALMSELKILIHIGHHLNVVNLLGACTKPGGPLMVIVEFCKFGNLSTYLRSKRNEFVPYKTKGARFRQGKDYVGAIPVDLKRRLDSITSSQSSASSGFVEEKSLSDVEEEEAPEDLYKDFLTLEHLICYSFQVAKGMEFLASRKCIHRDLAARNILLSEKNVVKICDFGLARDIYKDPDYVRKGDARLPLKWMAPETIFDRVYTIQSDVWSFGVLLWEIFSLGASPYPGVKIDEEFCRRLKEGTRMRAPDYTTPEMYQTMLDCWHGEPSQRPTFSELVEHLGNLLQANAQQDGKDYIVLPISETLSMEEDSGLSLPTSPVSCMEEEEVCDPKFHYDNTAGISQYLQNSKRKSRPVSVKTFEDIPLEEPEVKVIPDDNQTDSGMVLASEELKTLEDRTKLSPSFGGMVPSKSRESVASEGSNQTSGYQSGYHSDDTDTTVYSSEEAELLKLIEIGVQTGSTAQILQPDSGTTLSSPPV
Description: In brief, the master mixture (25 µl per well) was prepared and added to each well. 5 µl of inhibitor solution of each well labelled as “Test Inhibitor” was added. For the “Positive Control” and “Blank,” 5 µl of the same solution without inhibitor (Inhibitor buffer) was added. 3 ml of kinase buffer was prepared by mixing 600 µl of kinase buffer with 2400 µl water. To the wells designated as “Blank,” 20 µl of kinase buffer was added. The amount of VEGFR-2 required for the assay was calculated and the enzyme was diluted to 1 ng/µl with kinase buffer. The reaction was initiated by adding 20 µl of diluted VEGFR-2 enzyme to the wells designated “Positive Control” and “Test Inhibitor Control.” The mixtures were incubated at 30 °C for 45 min. After the 45 min, 50 µl of Kinase-Glo Max reagent was added to each well. The plate was incubated at room temperature for 15 min. Luminescence was measured using the microplate reader.

renal (UO-31) cell line = assay: MTT cytotoxicity assay; assay type: cell-based; details: Homo sapiens, mean ± SD of three experiments
SK-MEL-2 = assay: NCI 60-cell line one-dose antiproliferative screen (SRB); assay type: cell-based; details: Homo sapiens, read-out: growth inhibition % (GI%)
Method in brief: (§1)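 A 48 h, 10 µM exposure is scored by SRB protein dye. Percent growth accounts for starting cell density, allowing lethality as well as cytostasis to be detected.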

SR = assay: as above; assay type: cell-based; details: Homo sapiens, read-out: growth inhibition % (GI%)
Method in brief: as §1

KM12 = assay: as above; assay type: cell-based; details: Homo sapiens, read-out: growth inhibition % (GI%)
Method in brief: as §1

HCT-15 = assay: as above; assay type: cell-based; details: Homo sapiens, read-out: growth inhibition % (GI%)
Method in brief: as §1

OVCAR-3 = assay: as above; assay type: cell-based; details: Homo sapiens, read-out: growth inhibition % (GI%)
Method in brief: as §1

NCI-H23 = assay: as above; assay type: cell-based; details: Homo sapiens, read-out: growth inhibition % (GI%)
Method in brief: as §1

HS 578 T = assay: as above; assay type: cell-based; details: Homo sapiens, read-out: growth inhibition % (GI%)
Method in brief: as §1

UO-31 = assay: as above; assay type: cell-based; details: Homo sapiens, read-out: growth inhibition % (GI%)
Method in brief: as §1

HCT-116 = assay: as above; assay type: cell-based; details: Homo sapiens, read-out: growth inhibition % (GI%)
Method in brief: as §1

M14 = assay: as above; assay type: cell-based; details: Homo sapiens, read-out: growth inhibition % (GI%)
Method in brief: as §1

Colo 205 = assay: as above; assay type: cell-based; details: Homo sapiens, read-out: growth inhibition % (GI%)
Method in brief: as §1

DU-145 = assay: as above; assay type: cell-based; details: Homo sapiens, read-out: growth inhibition % (GI%)
Method in brief: as §1

CCRF-CEM = assay: as above; assay type: cell-based; details: Homo sapiens, read-out: growth inhibition % (GI%)
Method in brief: as §1

TK-10 = assay: as above; assay type: cell-based; details: Homo sapiens, read-out: growth inhibition % (GI%)
Method in brief: as §1

SF-268 = assay: as above; assay type: cell-based; details: Homo sapiens, read-out: growth inhibition % (GI%)
Method in brief: as §1

NCI-H226 = assay: as above; assay type: cell-based; details: Homo sapiens, read-out: growth inhibition % (GI%)
Method in brief: as §1

MDA-MB-435 = assay: as above; assay type: cell-based; details: Homo sapiens, read-out: growth inhibition % (GI%)
Method in brief: as §1

UACC-257 = assay: as above; assay type: cell-based; details: Homo sapiens, read-out: growth inhibition % (GI%)
Method in brief: as §1

SK-MEL-28 = assay: as above; assay type: cell-based; details: Homo sapiens, read-out: growth inhibition % (GI%)
Method in brief: as §1

ACHN = assay: as above; assay type: cell-based; details: Homo sapiens, read-out: growth inhibition % (GI%)
Method in brief: as §1

HCC-2998 = assay: as above; assay type: cell-based; details: Homo sapiens, read-out: growth inhibition % (GI%)
Method in brief: as §1

SK-MEL-5 = assay: as above; assay type: cell-based; details: Homo sapiens, read-out: growth inhibition % (GI%)
Method in brief: as §1

CAKI-1 = assay: as above; assay type: cell-based; details: Homo sapiens, read-out: growth inhibition % (GI%)
Method in brief: as §1

HT29 = assay: as above; assay type: cell-based; details: Homo sapiens, HT-29, read-out: growth inhibition % (GI%)
Method in brief: as §1

HOP-62 = assay: as above; assay type: cell-based; details: Homo sapiens, read-out: growth inhibition % (GI%)
Method in brief: as §1

MALME-3M = assay: as above; assay type: cell-based; details: Homo sapiens, read-out: growth inhibition % (GI%)
Method in brief: as §1

SK-OV-3 = assay: as above; assay type: cell-based; details: Homo sapiens, read-out: growth inhibition % (GI%)
Method in brief: as §1

Row | Compound | inhibition at 10 µM (SK-MEL-2) [%] | inhibition at 10 µM (SR) [%] | inhibition at 10 µM (KM12) [%] | inhibition at 10 µM (HCT-15) [%] | inhibition at 10 µM (OVCAR-3) [%] | inhibition at 10 µM (NCI-H23) [%] | inhibition at 10 µM (UO-31) [%] | inhibition at 10 µM (HCT-116) [%] | inhibition at 10 µM (M14) [%] | inhibition at 10 µM (DU-145) [%] | inhibition at 10 µM (CCRF-CEM) [%] | inhibition at 10 µM (SF-268) [%] | inhibition at 10 µM (NCI-H226) [%] | inhibition at 10 µM (MDA-MB-435) [%] | inhibition at 10 µM (UACC-257) [%] | inhibition at 10 µM (ACHN) [%] | inhibition at 10 µM (SK-MEL-5) [%] | inhibition at 10 µM (CAKI-1) [%] | inhibition at 10 µM (HOP-62) [%] | inhibition at 10 µM (MALME-3M) [%] | further results
1 | Cc1ccc(C(=O)c2ccc(CC(=O)NN=Cc3cccc(O)c3O)n2C)cc1 [Compound 5b, N′-(2,3-Dihydroxybenzylidene)-2–(1-methyl-5–(4-methylbenzoyl)-1H-pyrrol-2-yl) acetohydrazide] | < 10 | 91.1 | 55.8 | 84.3 | 76.5 | 54.6 | 85.8 | 69.2 | 71.5 | 50.7 | 86.9 | 62.8 | 31 | 38.9 | 10.3 | 86.5 | 65.4 | 62.7 | 50.1 | 41.3 | IC50 (colon (HCT-15) cell line): 6.62 ± 0.35 µM; IC50 [1]: 10.3 ± 0.55 µM; inhibition at 10 µM [2]: 60.9 to 95.9%; IC50 (VEGFR-2 (KDR)): 0.2 ± 0.02 µM; IC50 (renal (UO-31) cell line): 7.69 ± 0.41 µM; inhibition at 10 µM (HS 578 T): 12.6%; inhibition at 10 µM (Colo 205): 37%; inhibition at 10 µM (TK-10): 61.2%; inhibition at 10 µM (SK-MEL-28): 20%; inhibition at 10 µM (HCC-2998): 29.4%; inhibition at 10 µM (HT29): 13.3%; inhibition at 10 µM (SK-OV-3): 32%
2 | Cc1ccc(C(=O)c2ccc(CC(=O)NNC(=O)Nc3ccc(Cl)c(C(F)(F)F)c3)n2C)cc1 [Compound 8c, N-(4-Chloro-3-(trifluoromethyl)phenyl)-2–(2-(1-methyl-5–(4-methylbenzoyl)-1H-pyrrol-2-yl)acetyl)hydrazinecarboxamide] | – | < 10 | < 10 | 10.9 | – | < 10 | 38.4 | < 10 | 11.7 | < 10 | < 10 | 26.3 | < 10 | 20.7 | 22.9 | < 10 | 22.3 | 35.2 | 20 | < 10 | inhibition at 10 µM (HS 578 T): 11.9%; inhibition at 10 µM (Colo 205): < 10%; inhibition at 10 µM (HT29): < 10%; melting point: 171 to 173 °C
3 | Cc1ccc(C(=O)c2ccc(CC(=O)NN=Cc3ccccc3O)n2C)cc1 [Compound 5a, N′-(2-Hydroxybenzylidene)-2–(1-methyl-5–(4-methylbenzoyl)-1H-pyrrol-2-yl)aceto hydrazide] | 10.4 | 43.8 | 19.6 | 56.5 | 19.7 | 17.1 | 59.3 | < 10 | 17.1 | 10.4 | 45.9 | 29.1 | < 10 | 16.8 | < 10 | 46.8 | 12.6 | 35.5 | 24 | < 10 | inhibition at 10 µM (TK-10): 14.9%; inhibition at 10 µM (SK-MEL-28): 15.7%; inhibition at 10 µM (HCC-2998): < 10%; inhibition at 10 µM (SK-OV-3): < 10%; melting point: 222 to 224 °C
4 | Cc1ccc(C(=O)c2ccc(CC(=O)NN=Cc3ccc(O)cc3O)n2C)cc1 [Compound 5c, N′-(2,4-Dihydroxybenzylidene)-2–(1-methyl-5–(4-methylbenzoyl)-1H-pyrrol-2-yl) acetohydrazide] | 40.6 | 82.7 | 63.9 | 83.2 | 62.8 | 57.6 | 80.2 | 65.1 | 71.2 | 48.7 | 83.2 | 62.7 | 34.3 | 36.9 | 41.7 | 83.5 | 60.7 | 53.4 | 59.4 | 51.4 | IC50 (colon (HCT-15) cell line): 19 ± 1.03 µM; IC50 [1]: 31.7 ± 1.7 µM; inhibition at 10 µM [2]: 60.7 to 95%; IC50 (renal (UO-31) cell line): 17.4 ± 0.93 µM; inhibition at 10 µM (HS 578 T): 25.1%; inhibition at 10 µM (Colo 205): 58.2%; inhibition at 10 µM (TK-10): 47.1%; inhibition at 10 µM (SK-MEL-28): 53.6%; inhibition at 10 µM (HCC-2998): 40.4%; inhibition at 10 µM (HT29): 36%; inhibition at 10 µM (SK-OV-3): 54.9%
